Test results published in paper PMC6600881 (Gut Pathogens, 2019).

Target: T1, P. aeruginosa PGDH (SerA) (Pseudomonas aeruginosa, UniProt Q9I6H5)
T1 construct: full-length ORF, N-terminal GST fusion (pGEX-6P-1), GST cut off on resin by protease, expressed in E. coli BL21, 44 kDa
T1 sequence (Q9I6H5 1-409): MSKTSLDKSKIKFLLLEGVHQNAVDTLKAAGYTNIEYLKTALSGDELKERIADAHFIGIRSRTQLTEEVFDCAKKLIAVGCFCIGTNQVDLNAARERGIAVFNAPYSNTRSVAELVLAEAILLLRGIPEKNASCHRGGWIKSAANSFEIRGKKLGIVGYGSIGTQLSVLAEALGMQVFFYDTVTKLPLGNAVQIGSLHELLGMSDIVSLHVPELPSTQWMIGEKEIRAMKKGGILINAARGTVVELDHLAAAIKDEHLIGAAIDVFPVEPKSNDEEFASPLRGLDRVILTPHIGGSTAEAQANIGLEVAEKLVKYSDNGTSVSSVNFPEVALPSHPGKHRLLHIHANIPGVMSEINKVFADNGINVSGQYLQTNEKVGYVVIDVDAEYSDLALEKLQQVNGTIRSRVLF
Assay: NADH formation at […] nm
Format: biochemical

Structure (SMILES) | IC50 [mM]
N[C@H](CO)C(=O)O [D-serine] | 76
N[C@@H](CO)C(=O)O [L-serine] | 0.63
